Assay [1] has as its target T1, recombinant guanylate cyclase reporter cell line (Rattus norvegicus, UniProt P19686+P20595).
T1 construct: expressed in transfected cells
T1 sequence (P20595 1-619): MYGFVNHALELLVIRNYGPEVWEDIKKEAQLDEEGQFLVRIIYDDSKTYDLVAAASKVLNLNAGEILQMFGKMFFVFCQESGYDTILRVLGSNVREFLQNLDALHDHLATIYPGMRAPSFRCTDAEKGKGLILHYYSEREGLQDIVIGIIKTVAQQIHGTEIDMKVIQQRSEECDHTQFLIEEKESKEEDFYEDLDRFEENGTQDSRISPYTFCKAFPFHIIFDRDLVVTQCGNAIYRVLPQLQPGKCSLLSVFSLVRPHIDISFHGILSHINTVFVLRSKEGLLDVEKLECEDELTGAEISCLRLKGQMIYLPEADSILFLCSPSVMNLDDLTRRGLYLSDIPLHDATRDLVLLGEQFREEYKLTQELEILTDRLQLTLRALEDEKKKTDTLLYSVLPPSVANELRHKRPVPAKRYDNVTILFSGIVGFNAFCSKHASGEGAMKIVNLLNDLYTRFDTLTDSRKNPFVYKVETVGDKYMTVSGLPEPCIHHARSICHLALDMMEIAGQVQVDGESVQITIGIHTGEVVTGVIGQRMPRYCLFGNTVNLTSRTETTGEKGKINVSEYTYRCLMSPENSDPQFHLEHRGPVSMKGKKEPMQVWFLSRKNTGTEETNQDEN
T1 sequence (P19686 1-690): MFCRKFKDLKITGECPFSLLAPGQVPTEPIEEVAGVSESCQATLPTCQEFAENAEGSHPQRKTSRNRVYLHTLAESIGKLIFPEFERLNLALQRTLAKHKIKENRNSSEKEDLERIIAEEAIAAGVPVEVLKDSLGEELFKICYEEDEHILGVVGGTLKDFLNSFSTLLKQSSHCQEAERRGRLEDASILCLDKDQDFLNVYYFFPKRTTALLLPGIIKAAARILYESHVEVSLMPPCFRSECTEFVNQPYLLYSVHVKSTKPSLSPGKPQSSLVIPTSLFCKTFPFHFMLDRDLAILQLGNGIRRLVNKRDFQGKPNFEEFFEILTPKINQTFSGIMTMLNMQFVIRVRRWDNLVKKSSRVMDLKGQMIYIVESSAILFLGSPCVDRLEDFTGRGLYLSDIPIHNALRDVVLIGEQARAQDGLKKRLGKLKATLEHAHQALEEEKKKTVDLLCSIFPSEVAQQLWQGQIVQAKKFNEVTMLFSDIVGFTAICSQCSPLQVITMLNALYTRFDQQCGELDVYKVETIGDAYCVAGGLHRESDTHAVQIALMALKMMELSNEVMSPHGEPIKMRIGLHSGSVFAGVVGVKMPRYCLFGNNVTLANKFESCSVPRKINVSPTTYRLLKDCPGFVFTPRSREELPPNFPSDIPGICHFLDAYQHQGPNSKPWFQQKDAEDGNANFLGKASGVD
The experiment in a line: Action on recombinant guanylate cyclase reporter cell line. The assay is classed as cell-based. As to the method: B-2. Action on Recombinant Guanylate Cyclase Reporter Cell Line
The cellular action of the compounds according to the invention is determined on a recombinant guanylate cyclase reporter cell line, as described in F. Wunder et al., Anal. Biochem. 339, 104-112 (2005).

Assay [2] has as its target T2, human phosphodiesterase 5 (PDE-5) (Homo sapiens, UniProt O76074).
T2 construct: PDE-5 preparations are obtained from human platelets by lysis; from tissue; host or cells: human platelets
The experiment in a line: Inhibition of human phosphodiesterase 5 (PDE-5), SPA assay. The conditions noted are these: PDE-5 preparation from human platelets, [8-3H]cGMP substrate. The assay is classed as biochemical. The protocol: B-6. Inhibition of Human Phosphodiesterase 5 (PDE-5)
PDE-5 preparations are obtained from human platelets by lysis (Microfluidizer®, 800 bar, 3 passages), followed by centrifugation (75000 g, 60 min, 4° C.) and ion-exchange chromatography of the supernatant on a Mono Q 10/10 column (linear sodium chloride gradient, elution with a 0.2-0.3M solution of sodium chloride in buffer (20 mM Hepes pH 7.2, 2 mM magnesium chloride). Fractions that have PDE-5 activity are combined (PDE-5 preparation) and stored at −80° C.
For determining their in-vitro action on human PDE-5, the test substances are dissolved in 100% DMSO and serial dilutions are prepared. Typically, dilution series (1:3) from 200 μM to 0.091 μM are prepared (resultant final concentrations in the test: 4 μM to 0.0018 μM). In each case 2 μL of the diluted solutions of the substance are put in the wells of microtitre plates (Isoplate-96/200W; Perkin-Elmer). Then 50 μL of a dilution of the PDE-5 preparation described above is added. The dilution of the PDE-5 preparation is selected so that during subsequent incubation less than 70% of the substrate is reacted (typical dilution: 1:100; dilution buffer: 50 mM Tris/hydrochloric acid pH 7.5, 8.3 mM magnesium chloride, 1.7 mM EDTA, 0.2% BSA). The substrate [8-^3H]cyclic guanosine-3′,5′-monophosphate (1 μCi/μL; Perkin-Elmer) is diluted 1:2000 with assay buffer (50 mM Tris/hydrochloric acid pH 7.5, 8.3 mM magnesium chloride, 1.7 mM EDTA) to a concentration of 0.0005 μCi/μL. The enzyme reaction is finally started by adding 50 μL (0.025 μCi) of the diluted substrate. The test preparations are incubated for 60 min at room temperature and the reaction is stopped by adding 25 μL of a suspension of 18 mg/mL of Yttrium Scintillation Proximity Beads in water (phosphodiesterase beads for SPA assays, RPNQ 0150, Perkin-Elmer). The microtitre plates are sealed with film and left to stand for 60 min at room temperature. Then the plates are measured for 30 s per well in a Microbeta scintillation counter (Perkin-Elmer). IC50 values are determined on the basis of the graphs plotted of the substance concentration versus the percentage PDE-5 inhibition.

From US8859569B2, “Substituted annellated pyrimidines and use thereof” (Bayer Pharma Aktiengesellschaft, priority 2011, dated 2014) come the findings set out here.

Take `CC(C)CCNc1nc(-c2nn(Cc3ccccc3F)c3ncccc23)nc2c1C(C)(C)C(=O)N2` [Example 63, 2-[1-(2-fluorobenzyl)-1H-pyrazolo[3,4-b]pyridin-3-yl]-5,5-dimethyl-4-[(3-methylbutyl)amino]-5,7-dihydro-6H-pyrrolo[2,3-d]pyrimidin-6-one]: the “MEC (minimal effective concentration)” value in assay [1] is 0.03 μm. This compound showed an IC50 in assay [2] of 230 nM.
Turning to `CC1(C)C(=O)Nc2nc(-c3nn(Cc4ccccc4F)c4ncccc34)nc(N3CCCC3)c21` [Example 64, 2-[1-(2-fluorobenzyl)-1H-pyrazolo[3,4-b]pyridin-3-yl]-5,5-dimethyl-4-(pyrrolidin-1-yl)-5,7-dihydro-6H-pyrrolo[2,3-d]pyrimidin-6-one], in assay [1], the “MEC (minimal effective concentration)” value was 0.1 μm. This compound also came in with an IC50 in assay [2] of 980 nM.
As to `CC1(C)C(=O)Nc2nc(-c3nn(Cc4ccccc4F)c4ncccc34)nc(Nc3cccnc3)c21` [Example 65, 2-[1-(2-fluorobenzyl)-1H-pyrazolo[3,4-b]pyridin-3-yl]-5,5-dimethyl-4-(pyridin-3-ylamino)-5,7-dihydro-6H-pyrrolo[2,3-d]pyrimidin-6-one], the “MEC (minimal effective concentration)” value in assay [1] turned out to be 0.1 μm. The compound also displayed an IC50 in assay [2] of 430 nM.
The matching figures for `CC1(C)C(=O)Nc2nc(-c3nn(Cc4ccccc4F)c4ncccc34)nc(NC[C@H]3CNC(=O)C3)c21` [Example 66, 2-[1-(2-fluorobenzyl)-1H-pyrazolo[3,4-b]pyridin-3-yl]-5,5-dimethyl-4-{[(5-oxopyrrolidin-3-yl)methyl]amino}-5,7-dihydro-6H-pyrrolo[2,3-d]pyrimidin-6-one]: 0.1 μm and 16 nM.
Regarding `CC1(C)CCN(c2nc(-c3nn(Cc4ccccc4F)c4ncccc34)nc3c2C(C)(C)C(=O)N3)CC1` [Example 68, 4-(4,4-dimethylpiperidin-1-yl)-2-[1-(2-fluorobenzyl)-1H-pyrazolo[3,4-b]pyridin-3-yl]-5,5-dimethyl-5,7-dihydro-6H-pyrrolo[2,3-d]pyrimidin-6-one], in assay [1], the “MEC (minimal effective concentration)” value turned out to be 0.1 μm. For the same compound, in assay [2], the IC50 came out at 35 nM.
The matching figures for `CC1(C)C(=O)Nc2nc(-c3nn(Cc4ccccc4F)c4ncccc34)nc(Nc3ccncc3)c21` [Example 69, 2-[1-(2-fluorobenzyl)-1H-pyrazolo[3,4-b]pyridin-3-yl]-5,5-dimethyl-4-(pyridin-4-ylamino)-5,7-dihydro-6H-pyrrolo[2,3-d]pyrimidin-6-one]: 0.3 μm and 46 nM.
In the case of `CN1CCN(c2nc(-c3nn(Cc4ccccc4F)c4ncccc34)nc3c2C(C)(C)C(=O)N3)CC1` [Example 70, 2-[1-(2-fluorobenzyl)-1H-pyrazolo[3,4-b]pyridin-3-yl]-5,5-dimethyl-4-(4-methylpiperazin-1-yl)-5,7-dihydro-6H-pyrrolo[2,3-d]pyrimidin-6-one], the “MEC (minimal effective concentration)” value in assay [1] was 0.03 μm. In addition, the half-inhibitory concentration (IC50) in assay [2] worked out at 80 nM.
As for `CCOCCCNc1nc(-c2nn(Cc3ccccc3F)c3ncccc23)nc2c1C(C)(C)C(=O)N2` [Example 71, 4-[(3-ethoxypropyl)amino]-2-[1-(2-fluorobenzyl)-1H-pyrazolo[3,4-b]pyridin-3-yl]-5,5-dimethyl-5,7-dihydro-6H-pyrrolo[2,3-d]pyrimidin-6-one], in assay [1], the “MEC (minimal effective concentration)” value was found to be 0.01 μm. Further, the midpoint of inhibition in assay [2], the IC50, lay at 42 nM.
The corresponding values for `CC1(C)C(=O)Nc2nc(-c3nn(Cc4ccccc4F)c4ncccc34)nc(N3CCOCC3)c21` [Example 72, 2-[1-(2-fluorobenzyl)-1H-pyrazolo[3,4-b]pyridin-3-yl]-5,5-dimethyl-4-(morpholin-4-yl)-5,7-dihydro-6H-pyrrolo[2,3-d]pyrimidin-6-one] are 0.1 μm and 110 nM.
For `CC1(C)C(=O)Nc2nc(-c3nn(Cc4ccccc4F)c4ncccc34)nc(NCCC(N)=O)c21` [Example 73, N^3-{2-[1-(2-fluorobenzyl)-1H-pyrazolo[3,4-b]pyridin-3-yl]-5,5-dimethyl-6-oxo-6,7-dihydro-5H-pyrrolo[2,3-d]pyrimidin-4-yl}-beta-alaninamide], in assay [1], the “MEC (minimal effective concentration)” value was 0.3 μm. In addition, in assay [2], half-maximal inhibition (IC50) was put at 16 nM.
The corresponding values for `COCCCNc1nc(-c2nn(Cc3ccccc3F)c3ncccc23)nc2c1C(C)(C)C(=O)N2` [Example 74, 2-[1-(2-fluorobenzyl)-1H-pyrazolo[3,4-b]pyridin-3-yl]-4-[(3-methoxypropyl)amino]-5,5-dimethyl-5,7-dihydro-6H-pyrrolo[2,3-d]pyrimidin-6-one] are 0.01 μm and 110 nM.
Turning to `COCCN(C)c1nc(-c2nn(Cc3ccccc3F)c3ncccc23)nc2c1C(C)(C)C(=O)N2` [Example 75, 2-[1-(2-fluorobenzyl)-1H-pyrazolo[3,4-b]pyridin-3-yl]-4-[(2-methoxyethyl)(methyl)amino]-5,5-dimethyl-5,7-dihydro-6H-pyrrolo[2,3-d]pyrimidin-6-one], the “MEC (minimal effective concentration)” value in assay [1] turned out to be 0.03 μm. The same compound had an IC50 in assay [2] of 210 nM.
The corresponding values for `CC1(C)C(=O)Nc2nc(-c3nn(Cc4ccccc4F)c4ncccc34)nc(N3CCC(F)(F)C3)c21` [Example 76, 4-(3,3-difluoropyrrolidin-1-yl)-2-[1-(2-fluorobenzyl)-1H-pyrazolo[3,4-b]pyridin-3-yl]-5,5-dimethyl-5,7-dihydro-6H-pyrrolo[2,3-d]pyrimidin-6-one] are 0.03 μm and 130 nM.
The corresponding values for `CC1(C)C(=O)Nc2nc(-c3nn(Cc4ccccc4F)c4ncccc34)nc(NCc3cccc(F)c3)c21` [Example 78, 4-[(3-fluorobenzyl)amino]-2-[1-(2-fluorobenzyl)-1H-pyrazolo[3,4-b]pyridin-3-yl]-5,5-dimethyl-5,7-dihydro-6H-pyrrolo[2,3-d]pyrimidin-6-one] are 0.03 μm and 330 nM.
Consider `CC1(C)C(=O)Nc2nc(-c3nn(Cc4ccccc4F)c4ncccc34)nc(N[C@@H]3CCCNC3=O)c21` [Example 81, 2-[1-(2-fluorobenzyl)-1H-pyrazolo[3,4-b]pyridin-3-yl]-5,5-dimethyl-4-[(2-oxopiperidin-3-yl)amino]-5,7-dihydro-6H-pyrrolo[2,3-d]pyrimidin-6-one], for which, in assay [1], the “MEC (minimal effective concentration)” value turned out to be 0.03 μm. This compound also registered an IC50 in assay [2] of 290 nM.
